For the series, the target named is SOD1. As to conditions: ASO.

Target mRNA inhibition data for 35 sequences are collected here from the OligoGym collection.

Several values for one entry are separate records, joined by “and”; a condition that tells them apart may be missing. Equal entries are not always repeated. After the bases stand the sugars from the 5' end (letter, count) and the backbone: PS all phosphorothioate, else s phosphorothioate and o phosphodiester by linkage. Methylation of C is not given here. e = 2'-O-(2-methoxyethyl) (MOE); k = constrained ethyl (cEt); d = 2'-deoxy (DNA)

As for “AGGATACATTTCTACAG (sugars e2 k2 d9 k2 e2, PS)”, the target mRNA inhibition (HepG2, 0.1875 µM) amounted to 9%; the target mRNA inhibition (HepG2, 0.75 µM) is 52%; the target mRNA inhibition (HepG2, 3 µM) was determined as 81%; the target mRNA inhibition (HepG2, 4 µM) worked out at 77%; the target mRNA inhibition (HepG2, 12 µM) is 95%. The sequence “CCGTCGCCCTTCAGCAC (sugars e3 k2 d7 k2 e3, PS)” came in with a target mRNA inhibition (HepG2, 3 µM) of 27%. Sequence “GGATAACAGATGAGTTA (sugars e2 k2 d9 k2 e2, PS)” returned a target mRNA inhibition (HepG2, 4 µM) of 63%. For the sequence “GACAAGTTTAATACCCA (sugars e3 k2 d7 k2 e3, PS)”, under “HepG2, 3 µM”, the target mRNA inhibition came to 24%.

In the case of “AAGTTTAATACCCATCT (sugars e3 k2 d7 k2 e3, PS)”, the target mRNA inhibition (HepG2, 3 µM) came to 12%. “TAATACCCATCTGTGAT (sugars e2 k2 d9 k2 e2, PS)”: under “HepG2, 5 µM”, the target mRNA inhibition worked out at 28%. For the sequence “ATGTTTATCAGGATAC (sugars ekddddddddekekee, linkages s1 o1 s8 o3 s2)”, the target mRNA inhibition runs as follows: (A431, 0.12 µM) 0%; (A431, 0.6 µM) 7%; (A431, 3 µM) 26%; (A431, 15 µM) 59%; (HepG2, 0.222 µM) 64%; (HepG2, 0.667 µM) 81%. For the same sequence, the target mRNA inhibition by setting is: (HepG2, 2 µM) 90%; (HepG2, 6 µM) 94%.

“CAAAGAAATTCTGACAAGTT (sugars e5 d10 e5, PS)” displayed a target mRNA inhibition (HepG2, 5 µM) of 7%. For the sequence “ACTGGTACAGCCTGCTGTAT (sugars e5 d10 e5, PS)”, the target mRNA inhibition (HepG2, 5 µM) is 22% and 28%. Take “ATCCATGCAGGCCTTCA (sugars e3 k2 d7 k2 e3, PS)”: the target mRNA inhibition (HepG2, 3 µM) stood at 27%. For the sequence “TAAGTGCCATACAGGGT (sugars e2 k2 d9 k2 e2, PS)”, the target mRNA inhibition (HepG2, 5 µM) is 35%. Turning to “GTCAGTCCTTTAATGCTTCC (sugars e5 d10 e5, PS)”, the target mRNA inhibition (HepG2, 5 µM) was 34%. As to “CATTTCTACAGCTAGC (sugars ekddddddddekekee, linkages s1 o1 s8 o3 s2)”, the target mRNA inhibition runs as follows: (A431, 0.12 µM) 3%; (A431, 0.6 µM) 3%; (A431, 3 µM) 2%; (A431, 15 µM) 11%. Take “TCCACCTTTGCCCAAGT (sugars e3 k2 d7 k2 e3, PS)”: the target mRNA inhibition (HepG2, 3 µM) was 88%. With “ACAGGCTTGAATGACAAAGA (sugars e5 d10 e5, PS)”, the target mRNA inhibition (HepG2, 5 µM) came out at 19%. “TACAGGGTTTTTATTCA (sugars e3 k2 d7 k2 e3, PS)” displayed a target mRNA inhibition (HepG2, 3 µM) of 11%. On to “TTATTGGGCGATCCCAA (sugars e2 k2 d8 k2 e3, PS)”, for which the target mRNA inhibition (HepG2, 4 µM) worked out at 41%.

On to “CCTTCTGCTCGAAATTG (sugars e3 k2 d7 k2 e3, PS)”, for which the target mRNA inhibition (HepG2, 3 µM) is 16%. Still for that read-out and setting: for “CCTTTGGCCCACCGTGT (sugars e3 k2 d7 k2 e3, PS)” the value was 46%. Turning to “GGCCTTCAGTCAGTCCTTTA (sugars e5 d10 e5, PS)”, the target mRNA inhibition (HepG2, 5 µM) is 41% and 39%. The sequence “CTGGTCCATTACTTTCCTTC (sugars e5 d10 e5, PS)” showed a target mRNA inhibition (HepG2, 3 µM) of 50%. Regarding “ACCAGTGTGCGGCCAATGAT (sugars e5 d10 e5, PS)”, the target mRNA inhibition (HepG2, 5 µM) is 0%. In turn, “CCAAGTGATCATAAATC (sugars e2 k2 d8 k2 e3, PS)” had a target mRNA inhibition (HepG2, 5 µM) of 40%. Sequence “ATTACTTTCCTTCTGCT (sugars e3 k2 d7 k2 e3, PS)” showed a target mRNA inhibition (HepG2, 3 µM) of 15%. Take “AGGTACTTTAAAGCAAC (sugars e2 k2 d8 k2 e3, PS)”: for the setting “HepG2, 5 µM”, the target mRNA inhibition stood at 35%.

As to “CAGGATAACAGATGAGT (sugars e3 k2 d7 k2 e3, PS)”, the target mRNA inhibition is, setting by setting: (HepG2, 0.1875 µM) 45%; (HepG2, 0.75 µM) 72%; (HepG2, 3 µM) 65% and 86%; (HepG2, 12 µM) 92%. In turn, “GTTTCTCACTACAGGTA (sugars e2 k2 d9 k2 e2, PS)” displayed a target mRNA inhibition (HepG2, 5 µM) of 38%.

With “GCTAGCAGGATAACAGA (sugars e2 k2 d8 k2 e3, PS)”, under “HepG2, 4 µM”, the target mRNA inhibition is 19%.

“GTCGCCCTTCAGCACGC (sugars e2 k2 d8 k2 e3, PS)” registered a target mRNA inhibition (HepG2, 4 µM) of 60%. With “CCGTCGCCCTTCAGCAC (sugars e2 k2 d9 k2 e2, PS)”, the target mRNA inhibition runs as follows: (HepG2, 0.1875 µM) 24%; (HepG2, 0.75 µM) 42%; (HepG2, 3 µM) 80%; (HepG2, 4 µM) 75%; (HepG2, 12 µM) 94%. The matching figures for “TCAGACTACATCCAAGG (sugars e2 k2 d8 k2 e3, PS)”: 37%, 71%, 81%, 79% and 92%. “GTTTTTATTCACAGGCT (sugars e3 k2 d7 k2 e3, PS)” gave a target mRNA inhibition (HepG2, 3 µM) of 10%.

For the sequence “CAGGTCATTGAAACAGA (sugars e3 k2 d7 k2 e3, PS)”, where the note is “HepG2, 3 µM”, the target mRNA inhibition turned out to be 14%. Consider “CGCCCTTCAGCACGCAC (sugars e2 k2 d8 k2 e3, PS)”, for which, for the setting “HepG2, 4 µM”, the target mRNA inhibition turned out to be 67%. The sequence “TTCATTTCCACCTTTGC (sugars e3 k2 d7 k2 e3, PS)” showed a target mRNA inhibition (HepG2, 3 µM) of 33%.
